Test results: patent publication US20240246918A1, “COMPOUNDS AND COMPOSITIONS AS EIF4E INHIBITORS AND THE USES THEREOF” (Ribometrix, Inc., priority 2022, published 2024)
pIC50: −log10 of the molar value.

Tests used:
[1] = test system: COLO 205 colorectal tumor cells; test: Tumor cell viability inhibition assay (CellTiter-Glo 2.0, 72 hours); assay type: cell-based; settings: COLO 205 cell viability
Procedure, shortened: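 COLO 205 cells (1500/well, RPMI-1640 + 10% FBS) exposed for 72 h to an 11-point, 4-fold dilution series; cellular ATP read by CellTiter-Glo 2.0 luminescence. Data normalized to DMSO and maximum-inhibition controls; IC50 from 4-parameter curve fit.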

[2] = target: T1, human eIF4E protein (Homo sapiens, UniProt P06730); test: Biochemical competitive binding assay (TR-FRET competition, EDA-m7GDP-ATTO-647N probe); settings: read-out: hEIF4E TR-FRET IC50
T1 construct: purchased Novus NBP-45314
Procedure, shortened: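 His-tagged human eIF4E (4 nM) was preincubated with Eu-anti-His antibody (2.5 nM) and added to compound (11-point, 4-fold dilutions) for 15 min. Then 5 nM EDA-m7GDP-ATTO-647N was added for 15 min, in HEPES pH 7.5, 100 mM KCl. The 665/620 TR-FRET ratio was normalized to controls, and IC50 was taken from 4-parameter fits.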

T1 sequence (P06730 whole entry): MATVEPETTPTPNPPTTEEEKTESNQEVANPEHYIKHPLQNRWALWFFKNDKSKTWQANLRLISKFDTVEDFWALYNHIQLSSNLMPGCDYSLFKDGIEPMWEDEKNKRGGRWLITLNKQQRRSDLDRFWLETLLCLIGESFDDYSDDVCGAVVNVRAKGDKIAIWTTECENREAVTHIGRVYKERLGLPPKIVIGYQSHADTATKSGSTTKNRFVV

SMILES	pIC50 ([1]; Homo sapiens, COLO 205, 72 h)	pIC50 [2]	pIC50 [1]
CO[C@@H]1CCN([C@H]2CCc3nc(C)n(CCOc4ccc(Cl)cc4-c4cc(C)nc5c(C(=O)O)csc45)c(=O)c3C2)CC1(C)C (single isomer, unassigned) [Compound 377]	> 5.30	> 7.00	
Cc1cc(-c2cc(Cl)ccc2C#CCn2c(C)nc3c(c2=O)CC(C)(N2CCCC4(C2)CC4(F)F)CC3)c2scc(C(=O)O)c2n1 (single isomer, unassigned) [Compound 615]		6.30 to 7.00	< 4.70
Cc1cc(-c2cc(Cl)ccc2OCCn2c(C)nc3c(c2=O)C[C@H](N2CCC4(CC2)COCCO4)CC3)c2scc(C(=O)O)c2n1 (single isomer, unassigned) [Compound 424]	> 5.30	> 7.00	
Cc1cc(-c2cc(Cl)ccc2OCCn2c(C)nc3c(c2=O)C[C@@H](N(C)CC2CC(F)(F)C2)CC32CC2)c2scc(C(=O)O)c2n1 (single isomer, unassigned) [Compound 569]	> 5.30	> 7.00	
Cc1cc(-c2cc(Cl)ccc2OCCn2c(C)nc3c(c2=O)C[C@@H](N2CCCC[C@H]2C(F)(F)F)CC32CC2)c2scc(C(=O)O)c2n1 (single isomer, unassigned) [Compound 630]	4.70 to 5.30	> 7.00	
Cc1cc(-c2cc(Cl)ccc2OCCn2c(C)nc3c(c2=O)CC(N2CCC4(CC2)CNCCO4)CC3)c2scc(C(=O)O)c2n1 (single isomer, unassigned) [Compound 527]	< 4.70	> 7.00	
Cc1cc(-c2cc(Cl)ccc2OCCn2c(C)nc3c(c2=O)C[C@](C)(N2CCC[C@@]4(C2)CC4(F)F)CC3)c2scc(C(=O)O)c2n1 (single isomer, unassigned) [Compound 554]	4.70 to 5.30	6.30 to 7.00	
Cc1cc(-c2cc(Cl)ccc2OCCn2c(C)nc3c(c2=O)C[C@](C)(N2C[C@@H]4CC(F)(F)C[C@@H]4C2)CC3)c2scc(C(=O)O)c2n1 (stereo in doubt) [Compound 566]	> 5.30	> 7.00	
Cc1cc(-c2cc(Cl)ccc2OCCn2c(C)nc3c(c2=O)C[C@H](N(C)CC2CC(F)(F)C2)CC32CC2)c2scc(C(=O)O)c2n1 (single isomer, unassigned) [Compound 568]	> 5.30	> 7.00	
Cc1cc(-c2cc(Cl)ccc2OCCn2c(C)nc3c(c2=O)CC(N2CCC(CC(F)(F)F)CC2)CC3(C)C)c2scc(C(=O)O)c2n1 (single isomer, unassigned) [Compound 500]		> 7.00	> 5.30
Cc1cc(-c2cc(Cl)ccc2OCCn2c(C)nc3c(c2=O)CC(N2CC4(CCCNC4)C2)CC3)c2scc(C(=O)O)c2n1 (single isomer, unassigned) [Compound 509]	< 4.70	> 7.00	
Cc1cc(-c2cc(Cl)ccc2OCCn2c(C)nc3c(c2=O)C[C@@](C)(N2C[C@@H]4CC(F)(F)C[C@@H]4C2)CC3)c2scc(C(=O)O)c2n1 (stereo in doubt) [Compound 567]	> 5.30	> 7.00	
Cc1cc(-c2cc(Cl)ccc2OCCn2c(C)nc3c(c2=O)CC(N2CC4(CCCNC4)C2)CC3)c2scc(C(=O)O)c2n1 (single isomer, unassigned) [Compound 510]		> 7.00	< 4.70
Cc1cc(-c2cc(Cl)ccc2OCCn2c(C)nc3c(c2=O)CC(N2CC4CC(C2)C4(F)F)CC3)c2scc(C(=O)O)c2n1 (single isomer, unassigned) [Compound 375]		> 7.00	> 5.30
Cc1cc(-c2cc(Cl)ccc2OCCn2c(C)nc3c(c2=O)C[C@@H](N(C)C24CC5CC(CC(C5)C2)C4)CC3)c2scc(C(=O)O)c2n1 (single isomer, unassigned) [Compound 493]	> 5.30	> 7.00	
Cc1cc(-c2cc(Cl)ccc2OCCn2c(C)nc3c(c2=O)CC(C)(N2CCC(C(F)(F)F)CC2)CC3)c2scc(C(=O)O)c2n1 (single isomer, unassigned) [Compound 531]		> 7.00	> 5.30
Cc1cc(-c2cc(Cl)ccc2C#CCn2c(C)nc3c(c2=O)CC(C)(N2CCCC4(C2)CC4(F)F)CC3)c2scc(C(=O)O)c2n1 (single isomer, unassigned) [Compound 608]		> 7.00	> 5.30
Cc1cc(-c2cc(Cl)ccc2OCCn2c(C)nc3c(c2=O)C[C@@H](N2CCCC[C@H]2C)CC3)c2scc(C(=O)O)c2n1 (single isomer, unassigned) [Compound 437]	4.70 to 5.30	> 7.00	

Now from value to molecule:

pIC50 ([1]; Homo sapiens, COLO 205, 72 h)	pIC50 [2]	pIC50 [1]	SMILES
> 5.30	> 7.00		Cc1cc(-c2cc(Cl)ccc2OCCn2c(C)nc3c(c2=O)CC(N2CCC(OC(F)(F)F)CC2)CC3)c2scc(C(=O)NS(C)(=O)=O)c2n1 (single isomer, unassigned) [Compound 104]
> 5.30	> 7.00		Cc1cc(-c2cc(Cl)ccc2OCCn2c(C)nc3c(c2=O)C[C@H](N2CCC(OC(F)F)CC2)CC3)c2scc(C(=O)O)c2n1 (single isomer, unassigned) [Compound 385]
> 5.30	> 7.00		[2H]C1(N2CCC(OC(F)(F)F)CC2)CCc2nc(C)n(CCOc3ccc(Cl)cc3-c3cc(C)nc4c(C(=O)O)csc34)c(=O)c2C1 (single isomer, unassigned) [Compound 362]
	> 7.00	> 5.30	Cc1cc(-c2cc(Cl)ccc2OCCn2c(C)nc3c(c2=O)CC(N2CC4(CCC(F)(F)CC4)C2)CC3)c2scc(C(=O)NS(C)(=O)=O)c2n1 (single isomer, unassigned) [Compound 364]
> 5.30	> 7.00		COc1cc(C2CCN([C@H]3CCc4nc(C)n(CCOc5ccc(Cl)cc5-c5cc(C)nc6c(C(=O)O)csc56)c(=O)c4C3)CC2)ccn1 (single isomer, unassigned) [Compound 576]
> 5.30	> 7.00		Cc1cc(-c2cc(Cl)ccc2OCCn2c(C)nc3c(c2=O)C[C@@H](N2CCC(CC(F)(F)F)CC2)CC3)c2scc(C(=O)O)c2n1 (single isomer, unassigned) [Compound 106]
> 5.30	> 7.00		Cc1nc2c(c(=O)n1CC#Cc1ccc(Cl)cc1-c1ccnc3c(C(=O)O)csc13)C[C@H](N1CCC[C@]3(C1)CC3(F)F)CC2 (single isomer, unassigned) [Compound 570, 7-(5-chloro-2-(3-(6-(1,1-difluoro-5-azaspiro[2.5]octan-5-yl)-2-methyl-4-oxo-5,6,7,8-tetrahydroquinazolin-3(4H)-yl)prop-1-yn-1-yl)phenyl)thieno[3,2-b]pyridine-3-carboxylic acid]
> 5.30	> 7.00		Cc1csc(C2CCN([C@@H]3CCc4nc(C)n(CCOc5ccc(Cl)cc5-c5cc(C)nc6c(C(=O)O)csc56)c(=O)c4C3)CC2)n1 (single isomer, unassigned) [Compound 429]
	5.30 to 6.30	< 4.70	Cc1cc(-c2cc(Cl)ccc2OCCn2c(C(F)(F)F)nc3c(c2=O)CC(N2CCC(OC(F)(F)F)CC2)CC3)c2scc(C(=O)O)c2n1 (single isomer, unassigned) [Compound 631]
> 5.30	> 7.00		Cc1cc(-c2cc(Cl)ccc2OCCn2c(C)nc3c(c2=O)C[C@H](N2CCC(O)CC2)CC3)c2scc(C(=O)O)c2n1 (single isomer, unassigned) [Compound 434]
> 5.30	> 7.00		Cc1cc(-c2cc(Cl)ccc2OCCn2c(C)nc3c(c2=O)C[C@H](N2CCO[C@@H](COC(F)(F)F)C2)CC3)c2scc(C(=O)O)c2n1 (single isomer, unassigned) [Compound 477]
> 5.30	> 7.00		Cc1cc(-c2cc(Cl)ccc2OCCn2c(C)nc3c(c2=O)C[C@@H](N2CCC(Oc4ccc(F)cc4F)CC2)CC3)c2scc(C(=O)O)c2n1 (single isomer, unassigned) [Compound 596]
4.70 to 5.30	> 7.00		CCS(=O)(=O)C1CCN(C2CCc3nc(C)n(CCOc4ccc(Cl)cc4-c4cc(C)nc5c(C(=O)O)csc45)c(=O)c3C2)CC1 (centres unmarked) [Compound 115]
> 5.30	> 7.00		Cc1nc2c(c(=O)n1CC#Cc1ccc(Cl)cc1-c1ccnc3c(C(=O)NS(C)(=O)=O)csc13)CC(N1CCC(OC(F)(F)F)CC1)CC2 (single isomer, unassigned) [Compound 592]
> 5.30	> 7.00		Cc1cc(-c2cc(Cl)ccc2OCCn2c(C)nc3c(c2=O)C[C@H](N2CCC(OC(F)(F)F)CC2)[C@@H]2C[C@H]32)c2scc(C(=O)O)c2n1 (single isomer, unassigned) [Compound 597]
> 5.30	> 7.00		Cc1cc(-c2cc(Cl)ccc2OCCn2c(C)nc3c(c2=O)C[C@H](N2CCO[C@@H](CC(F)(F)F)C2)CC3)c2scc(C(=O)O)c2n1 (single isomer, unassigned) [Compound 523]
	> 7.00	> 5.30	Cc1cc(-c2cc(Cl)ccc2OCCn2c(C)nc3c(c2=O)CC(N2CCC(OC(F)(F)F)CC2)CC3)c2scc(C(=O)NS(C)(=O)=O)c2n1 (single isomer, unassigned) [Compound 105]
	6.30 to 7.00	< 4.70	Cc1cc(-c2cc(Cl)ccc2OCCn2c(C)nc3c(c2=O)CC(CN)(N2CCC(OC(F)(F)F)CC2)CC3)c2scc(C(=O)O)c2n1 (single isomer, unassigned) [Compound 623]
> 5.30	> 7.00		Cc1nc2c(c(=O)n1CC#Cc1ccc(Cl)cc1-c1ccnc3c(C(=O)O)csc13)C[C@@H](N1CCC[C@@]3(C1)CC3(F)F)CC2 (single isomer, unassigned) [Compound 538, 7-(5-chloro-2-(3-(6-(1,1-difluoro-5-azaspiro[2.5]octan-5-yl)-2-methyl-4-oxo-5,6,7,8-tetrahydroquinazolin-3(4H)-yl)prop-1-yn-1-yl)phenyl)thieno[3,2-b]pyridine-3-carboxylic acid]
